In patent publication US10626148B2, “Glycopeptides conjugates and uses thereof” (priority 2015, dated 2020):

Assays:
[1] = system: Vancomycin-resistant E. faecalis (VanA, ATCC 51575); assay: MIC, micro-dilution broth, VREs; assay type: cell-based; settings: Enterococcus faecalis, ATCC51575
Method: (§1) Test compounds were assayed in a micro-dilution broth format. Stock solutions were made by serially diluting the compounds using autoclaved millipore water or broth media. The antibacterial activity of the compounds was determined against gram positive bactreia like methicillin-resistant S. aureus (MRSA), vancomycin-intermediate-resistant S. aureus (VISA), vancomycin-sensitive E. faecium (VSE), vancomycin-resistant E. faecalis and vancomycin-resistant E. faecium (VRE). Antibacterial activity of dipicolyl-vancomycin conjugate conjugate (4) in combination with meropemem was determined against gram-negative bacteria such as K. pneumoniae ATCC BAA2146, clinical isolates K. pneumoniae R3949, K. pneumoniae R3934, E. coli R3336 and A. baumanii R676. Bacteria, to be tested, were grown for about 10 h in the suitable media, MRSA, VISA and gram negative bacteria were grown in Yeast-dextrose broth (about 1 g of beef extract, about 2 g of yeast extract, about 5 g of peptone and about 5 g of NaCl in about 1000 mL of sterile distilled water (pH-7)). For solid media, about 5% agar was used along with above mentioned composition. VSE and VRE were cultured in Brain Heart Infusion broth (Himedia). The bacterial samples were freeze dried and stored at −80° C. About 5 μL of these stocks were added to about 3 mL of the nutrient broth or Brain Heart Infusion broth and the culture was grown for about 6 h at about 37° C. prior to the experiments. This 6 h grown culture gives about 10^9 cfu/mL and this was determined by spread plating method. The 6 h grown culture was diluted to give effective cell concentration of about 10^5 cfu/mL which was then used for determining MIC. Compounds were serially diluted, in sterile water (2-fold dilution is employed) in a way that the working concentration was about 10 μM for MRSA, and VSE while for VRE, VISA and gram negative bacteria; it was about 100 μM. About 50 μL of these serial dilutions were added to the wells of 96 well plate followed by the addition of about 150 μL of bacterial solution. The plates were then incubated at about 37° C., 150 rpm in the incubator and O.D at 620 nm was recorded at an interval of about 24 h using TECAN (Infinite series, M200 pro) Plate Reader. Each concentration had triplicate values and the whole experiment was done at least twice and the MIC value was determined by taking the average of triplicate O.D. values for each concentration and plotting it against concentration. The data was then subjected to sigmoidal fitting.

[2] = system: VRE; assay: Cell wall biosynthesis inhibition, UDPMurNAc-pp accumulation; assay type: cell-based
Method: In order to investigate whether the new installed properties of vancomycin derivative on inhibition of cell wall (peptidoglycan) biosynthesis against VRE, the accumulation of UDP-linked peptidoglycan precursor, UDP-N-acetyl-muramyl-pentadepsipeptide (UDPMurNAc-pp) was determined after treating the bacteria (VRE) with test compounds. Analysis of the cytoplasmic peptidoglycan nucleotide precursor pool was examined using VRE cells grown in 25 mL MHB. Cells were grown to an A600 nm (OD600) of 0.6 and incubated with 130 μg/mL of chloramphenicol for 15 min. Then, test compounds vancomycin (5 μM), compound 4 and physical mixture of compound 4 with zinc sulphate (5 μM) were added and incubated for another 60 min. Cells were collected and washed with sterile water to remove the antimicrobial agents and then extracted with boiling water. The cell extract was then centrifuged and the supernatant lyophilized. Then, the lyophilized powder was dissolved in 2 mL of water and pH was adjusted to 2.0 with 20% phosphoric acid. Now, the UDP-linked cell wall precursors in the solution were analyzed by RP-HPLC monitoring the UV absorbance peak at 260 nm wavelength and confirmed by HR-MS mass spectrometry.

[3] = system: VREs ATCC 51575; assay type: in vivo, E. faecalis; settings: CD-1 mice, 12 mg/kg i.p. once daily, three doses
Method: Female CD-1 mice 6 to 8 weeks of age and weighing 20 to 25 g were used in this study. On day −7, all mice were injected intravenously (i.v.) with 0.2 mL of 0.2% λ-carrageenan to increase their susceptibility to bacterial renal infection. λ-Carrageenan increases mice susceptibility to renal infection following i.v. injection, possibly by forming a lattice structure in renal tissue and forming a support structure for bacterial attachment and growth. Bacterial strains that fail to cause renal infection in normal mice produce significant renal infections in λ-carrageenan-treated mice. On day 0, all mice were injected i.v. with 0.2 mL of the bacterial culture (VREs ATCC 51575, 10^8 CFU/mouse) through the tail vein. Four hours after the bacterial inoculation, mice were treated intraperitoneally (i.p.) with vancomycin, compound 4 and linezolid at 12 mg/kg of body weight or 0.2 mL of saline (0.9% NaCl) control (n=5). All the test compounds or saline were administered once daily for an additional two consecutive days for a total of three doses. All mice were sacrificed on day 3. Both kidneys from each mouse were removed aseptically and homogenized in 10 mL of saline. The dilutions of the homogenate were plated onto sheep blood agar plates, which were incubated overnight at about 37° C. The bacterial titer was expressed as log10 CFU/g of kidney weight.

[4] = In-vivo toxicology, systemic toxicity; settings: 100 mg/kg
Method: To evaluate maximum tolerability of the new glycopeptide, systemic toxicity was performed on CD-1 female mice. Each mouse was injected with a 0.2 mL of freshly prepared compound 4 solution in saline. The dose of the compound administered was 100 mg/kg (n=5).

[5] = system: Vancomycin-resistant E. faecium (VanA, ATCC 51559); assay: MIC, micro-dilution broth, VREm; assay type: cell-based
Method: as §1

[6] = system: NDM-1 expressing Escherichia coli R3336; assay: microbe, parasite or virus in culture; assay type: cell-based; settings: Escherichia coli R3336
Method: as §1
(§2) Then, the antibacterial activities of Dipicolyl-vancomycin conjugate (4) is checked in combination with meropenem against New-Delhi β-lactamase producing gram negative bacteria such as K. pneumoniae BAA2146, clinical isolates K. pneumoniae R3949, K. pneumoniae R3934, E. coli R3336 and A. baumanii R676. […] Further we have also evaluated the antibacterial activity of dipicolyl-vancomycin conjugate (4) in presence of zinc sulphate, wherein it forms dipicolyl-vancomycin-zinc complex (5).

[7] = system: NDM-1 expressing Klebsiella pneumoniae R3934; assay: microbe, parasite or virus in culture; assay type: cell-based; settings: Klebsiella pneumoniae R3934
Method: as §1, §2

[8] = system: NDM-1 expressing Klebsiella pneumoniae R3949; assay: microbe, parasite or virus in culture; assay type: cell-based; settings: Klebsiella pneumoniae R3949
Method: as §1, §2

[9] = system: NDM-1 expressing Klebsiella pneumoniae ATCC BAA2146; assay: microbe, parasite or virus in culture; assay type: cell-based; settings: Klebsiella pneumoniae ATCC BAA2146
Method: as §1, §2

[10] = system: meropenem-resistant NDM-1 bacteria; assay: Combination with meropenem against NDM-1 gram negative bacteria; assay type: cell-based; settings: in combination with meropenem
Method: Test compounds were assayed in a micro-dilution broth format. Stock solutions were made by serially diluting the compounds using autoclaved millipore water or broth media. The antibacterial activity of the compounds was determined against gram positive bactreia like methicillin-resistant S. aureus (MRSA), vancomycin-intermediate-resistant S. aureus (VISA), vancomycin-sensitive E. faecium (VSE), vancomycin-resistant E. faecalis and vancomycin-resistant E. faecium (VRE). Antibacterial activity of dipicolyl-vancomycin conjugate conjugate (4) in combination with meropemem was determined against gram-negative bacteria such as K. pneumoniae ATCC BAA2146, clinical isolates K. pneumoniae R3949, K. pneumoniae R3934, E. coli R3336 and A. baumanii R676. Bacteria, to be tested, were grown for about 10 h in the suitable media, MRSA, VISA and gram negative bacteria were grown in Yeast-dextrose broth (about 1 g of beef extract, about 2 g of yeast extract, about 5 g of peptone and about 5 g of NaCl in about 1000 mL of sterile distilled water (pH-7)). […] This 6 h grown culture gives about 10^9 cfu/mL and this was determined by spread plating method. […] The plates were then incubated at about 37° C., 150 rpm in the incubator and O.D at 620 nm was recorded at an interval of about 24 h using TECAN (Infinite series, M200 pro) Plate Reader. Each concentration had triplicate values and the whole experiment was done at least twice and the MIC value was determined by taking the average of triplicate O.D. values for each concentration and plotting it against concentration. […]
as §2

SMILES: CN[C@H](CC(C)C)C(=O)N[C@H]1C(=O)N[C@@H](CC(N)=O)C(=O)N[C@H]2C(=O)N[C@H]3C(=O)N[C@H](C(=O)N[C@H](C(=O)NCCCCCCN(Cc4ccccn4)Cc4ccccn4)c4cc(O)cc(O)c4-c4cc3ccc4O)[C@H](O)c3ccc(c(Cl)c3)Oc3cc2cc(c3O[C@H]2OC(CO)[C@H](O)C(O)C2O[C@H]2CC(C)(N)[C@H](O)C(C)O2)Oc2ccc(cc2Cl)[C@H]1O (some centres unmarked) [Compound 4, Dipicolyl-vancomycin conjugate]
- MIC [1]: 2.5 µM
- cell wall biosynthesis inhibition (accumulation of UDPMurNAc-pp, peak at 260 nm) ([2]; 60 min): greater cell wall biosynthesis inhibition compared to vancomycin
- cell wall biosynthesis inhibition (accumulation of UDPMurNAc-pp) ([2]; in presence of Zn2+ (zinc sulphate 5 μM)): enhanced cell wall biosynthesis inhibition
- reduction of bacterial titer from infected kidneys in comparison to vancomycin [3]: reduced bacterial titer from the infected kidneys more effectively
- CFU reduction compared to vehicle treated control (saline) ([3]; kidneys): ~5.0 log10 CFU
- survival at 14 days ([4]; CD-1 female mice): All the mice were found to survive
- LD50 at 14 days ([4]; female, CD-1, mouse, in vivo): > 100 mg/kg
- MIC ([5]; Enterococcus faecium, ATCC51559): 1.2 µM
- fold more active than vancomycin ([5]; VREm (VRE), ratio of MIC values): about 700 fold
- MIC of Meropenem in presence of compound 4 at 12 μM [6]: 12 µg/mL
- MIC of Meropenem in presence of compound 4 at 12 μM [7]: 3.1 µg/mL
- MIC of Meropenem in presence of compound 4 at 12 μM [8]: 3.1 µg/mL
- MIC of Meropenem in presence of compound 4 at 12 μM [9]: 1.5 µg/mL
- resensitization of meropenem-resistant NDM-1 bacteria to meropenem (synergistic activity) [10]: able to resensitize
